# Test results as given in paper PMC12257510, “Structure-Guided Design of a KMT9 Inhibitor Prodrug with Cellular Activity” (Journal of Medicinal Chemistry, 2025).
# Assays:
# KMT5A = biological target: T1, KMT5A (Homo sapiens, UniProt Q9NQR1); test: CETSA in intact SW480 cells, KMT5A; format: cell-based; set-up: endogenous in cells; host or cells: SW480
# T1 sequence (Q9NQR1 1-393): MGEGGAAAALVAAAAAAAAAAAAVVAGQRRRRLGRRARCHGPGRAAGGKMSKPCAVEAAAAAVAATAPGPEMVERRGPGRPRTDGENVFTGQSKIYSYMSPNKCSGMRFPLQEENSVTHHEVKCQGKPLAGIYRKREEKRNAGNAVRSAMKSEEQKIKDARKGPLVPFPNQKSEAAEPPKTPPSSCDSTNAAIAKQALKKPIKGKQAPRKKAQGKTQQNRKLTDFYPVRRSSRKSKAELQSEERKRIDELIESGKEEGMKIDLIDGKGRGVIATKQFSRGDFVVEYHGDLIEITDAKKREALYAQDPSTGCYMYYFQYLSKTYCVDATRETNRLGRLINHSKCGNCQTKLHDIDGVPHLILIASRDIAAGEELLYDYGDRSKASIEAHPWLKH
# Procedure: (§1) For whole cell CETSA, the cells were incubated with 10/15 μM of compound 7b/8/8-N for 18 h. Then, cells were washed with cell culture medium, detached from the surface using trypsin, washed with PBS and the number of cells was determined. Cell concentration was adjusted to 3.6 × 10^7 cells/mL using in PBS with Complete (w/o EDTA, Roche) protease inhibitor. Then, cells were frozen in liquid nitrogen and thawed at 25 °C three times, before being divided in 16 aliquots. Each aliquot was heated to a defined temperature between 40 and 70 °C in a PCR cycler (16 well gradient, 55 °C ± 15). After 3 min incubation, aliquots were snap frozen in liquid nitrogen and thawed at 25 °C. Cell lysates were then centrifuged at 20,000 × g , 4 °C for 20 min. Supernatant were mixed with 5× loading buffer, heated to 70 °C for 5 min and analyzed by Western blotting essentially as previously described. For the CETSA performed with cell lysates, cells were directly harvested and lysed as described above. […]
# (§2) Figure S4. […] Representative Western blots (A) and quantification (B) showing no obvious shifting melting temperatures (ΔT m) of endogenous KMT5A upon treatment with compound 7b compared to DMSO. […]
# (§3) Representative Western blots (C) and quantification (D) showing no shifting melting temperatures (ΔT m) of endogenous KMT5A upon treatment with compound 8 compared to DMSO. […]
# KMT9 = biological target: T2, KMT9 (Homo sapiens, UniProt Q9Y5N5); test: Microscale thermophoresis (MST) binding assay
# T2 sequence (Q9Y5N5 1-214): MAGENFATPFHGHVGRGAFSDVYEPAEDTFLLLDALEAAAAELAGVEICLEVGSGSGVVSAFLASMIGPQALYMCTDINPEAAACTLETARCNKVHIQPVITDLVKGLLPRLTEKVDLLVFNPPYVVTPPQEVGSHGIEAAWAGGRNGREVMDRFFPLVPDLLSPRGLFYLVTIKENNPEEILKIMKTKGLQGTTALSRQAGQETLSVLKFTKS
# T2 sequence (Q9UI30 1-125 partner): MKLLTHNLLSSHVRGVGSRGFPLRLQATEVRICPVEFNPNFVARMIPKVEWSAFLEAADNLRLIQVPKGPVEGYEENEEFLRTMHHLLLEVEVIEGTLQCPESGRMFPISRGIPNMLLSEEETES
# Procedure: To determine the binding affinity of the compound and KMT9, microscale thermophoresis (MST) analysis was performed with a NanoTemper Monolith NT.115 instrument (NanoTemper Technologies GmbH). KMT9 was labeled with a RED-Tris-NTA labeling kit (NanoTemper Technologies GmbH) based on the manufacturer’s instructions. Buffer including 25 mM HEPES (pH 7.5), 100 mM NaCl, 1 mM DTT and 0.05% Tween was used for the reaction buffer. Varying concentrations of compounds were titrated against His-tag labeled KMT9 proteins (20 nM). Samples were loaded into standard Capillaries (NanoTemper Technologies GmbH) and MST measurements were performed using 40% MST power and 100% LED power. For each set of binding experiments, MST measurement was carried out with Binding Affinity module in MO. Control program under Nano-RED excitation. Data sets were processed with the MO.Affinity Analysis software (NanoTemper Technologies GmbH).
# HepG2 cells = test: Cell proliferation assay, HepG2; format: cell-based, human; settings: vs DMSO
# KMT9a = biological target: T3, KMT9a (Homo sapiens, UniProt Q9Y5N5); test: CETSA in Caco-2 cells, KMT9; format: cell-based; set-up: of endogenous KMT9 upon treatment with; endogenous in cells; host or cells: Caco-2
# T3 sequence (Q9Y5N5 1-214): T2 sequence (Q9Y5N5 1-214)
# T3 sequence (Q9UI30 1-125 partner): T2 sequence (Q9UI30 1-125 partner)
# Procedure: as §1, §2, §3
# Caco-2 cells = test: Cell proliferation assay (X-Celligence), Caco-2; format: cell-based; settings: Xcelligence, vs DMSO
# Procedure: Cell proliferation was determined using the X-Celligence RTCA system (Roche). For real-time recording of SW480, Caco-2 cell proliferation, 5000 cells/well were seeded in 16 well E-plates (Roche). […] Cell indices were automatically recorded every 15 min. Relative velocities represent the change of the cell index over time. The sequences of the siRNAs (Stealth RNAi siRNAs; Life Technologies) used in the experiments have been previously described.
smiles,measurement,setting,value
"CCOC(=O)[C@@H](N)CCN(CCCNCCc1ccc(Oc2ccc(Cl)cc2)c(F)c1)C[C@H]1C[C@@H](n2ccc3c(NC)ncnc32)[C@H](O)[C@@H]1O [compound 8, Ethyl (S)-2-amino-4-((3-((4-(4-chlorophenoxy)-3-fluorophenethyl)amino)propyl) (((1R,2R,3S,4R)-2,3-dihydroxy-4-(4-(methylamino)-7H-pyrrolo[2,3-d]pyrimidin-7-yl)cyclopentyl)methyl)amino)butanoate]",ΔTm at 10 µM,KMT5A,-0.6 °C
same,Decrease of binding affinity compared to compound 7b,KMT9; Kd ratio vs compound 7b,"more than 10,000 fold"
same,Kd,"KMT9; MST, binding to KMT9, read-out: Kd",> 400 µM
same,Proliferation of HepG2 cells,HepG2 cells,did not affect cell proliferation
same,ΔTm at 15 µM,KMT9a,6.1 °C
same,Proliferation of Caco-2 cells,Caco-2 cells,strongly suppressed proliferation
